Assay results from US20210186984A1, “CERTAIN (2S)-N-[(1S)-1-CYANO-2-PHENYLETHYL]-1,4-OXAZEPANE-2-CARBOXAMIDES FOR TREATING ANCA ASSOCIATED VASCULITIDES” (Insmed Incorporated, priority 2018, published 2021).

Columns and labels:
total proteinase 3 (PR3) = test: Flow cytometry of total (surface and intracellular) PR3 expression in differentiated neutrophils; type: cell-based, human
Procedure: (§1) To evaluate the pharmacological effects of INS1007 on surface PR3 expression, total PR3 expression, and NSP activity, stem cells were differentiated to neutrophils in the presence of INS1007 at increasing concentrations. Primary bone marrow (BM) or umbilical cord blood (UC) derived CD34^+ neutrophil progenitor cells (AllCells; Alameda, Calif.) were cultured for 7 days in STEMSPAN™ SFEM media (Stemcell Technologies; Tukwila, WA) supplemented with recombinant human Stem Cell Factor (Peprotech; Rocky Hill, NJ) and recombinant human IL-3 (Peprotech). The cells were differentiated in culture for another 7 days in STEMSPAN™ SFEM media (Stemcell Technologies) with recombinant human Granulocyte Colony Stimulating Factor (Peprotech), plus increasing concentrations of INS1007 (0-10 μM). At the end of the differentiation/treatment period, cells were harvested for analysis.
Differentiated neutrophils were harvested for flow cytometry to quantify PR3 expression on the surface of neutrophils (FIGS. 1 and 2) and neutrophil total PR3 expression (FIG. 3).

surface PR3 = test: Fluorescence microscopy of surface PR3 on neutrophils differentiated in presence of INS1007; type: cell-based, human; details: differentiation in the presence of 10 μM; neutrophils derived from bone marrow and umbilical cord stem cells (both cell types)
Procedure: as §1, with “At the end of the differentiation/treatment period, cells were harvested for analysis.” left out
In a separate experiment, neutrophils were harvested, stained for 30 min. with either a mouse anti-PR3 monoclonal antibody (Abcam; Cambridge, Mass.) or a mouse monoclonal IgG isotype control (Abcam), followed by a Cy5-conjugated goat anti-mouse IgG secondary antibody (Abcam), fixed in 4% formaldehyde, and mounted to glass slides with PROLONGTM Diamond Antifade Mountant with DAPI (Thermo Fisher; Waltham, Mass.). Samples were imaged with an Axio fluorescence microscope (Zeiss; Oberkochen, Germany) using constant settings while imaging samples from different treatment conditions.

Cn1c(=O)oc2ccc(-c3ccc(C[C@@H](C#N)NC(=O)[C@@H]4CNCCCO4)cc3)cc21 [INS1007, (2S)-N-{(1S)-1-cyano-2-[4-(3-methyl-2-oxo-2,3-dihydro-1,3-benzoxazol-5-yl)phenyl]ethyl}-1,4-oxazepane-2-carboxamide]
total PR3 levels (total proteinase 3 (PR3); bone marrow stem cell-derived neutrophils, not completely concentration-dependent): significantly reduced | percentage of cells with positive total PR3 expression (total proteinase 3 (PR3); neutrophils derived from either umbilical cord blood or bone marrow stem cells): did not reduce | total PR3 levels (total proteinase 3 (PR3); umbilical cord blood stem cell-derived neutrophils): did not reach statistically significant reduction | surface PR3 (fluorescence microscopy) (surface PR3): markedly reduced
